Values quoted from earlier work as cited in EP1680106B1, “COMBINATION TREATMENT OF OBESITY INVOLVING 4,5-DIHYDRO-1H-PYRAZOLE DERIVATIVES HAVING CB1-ANTAGONISTIC ACTIVITY AND LIPASE INHIBITORS” (Solvay Pharmaceuticals GmbH, priority 2003, dated 2005).

Tests used:
[1] = atypical antipsychotics, follow-up studies
[2] = healthy male volunteers, 5 days with meals; ATL-962 50 mg to 300 mg, orlistat 120 mg tid; placebo 1.4 (+/-1.0)
[3] = tested on: carragheenin-induced swelling; conditions: mice

| Compound | weight gain with long-term treatment [1] | other results |
| --- | --- | --- |
| Cc1cc2c(s1)Nc1ccccc1N=C2N1CCN(C)CC1 [olanzapine] | largest weight gains | – |
| CCCCCCCCCCC[C@@H](C[C@@H]1OC(=O)[C@H]1CCCCCC)OC(=O)[C@H](CC(C)C)NC=O [tetrahydrolipstatin, (2S,3S,5S)-5-((S)-2-4-methylvaleryloxy)-2-hexyl-3-hydroxy-hexadecanoic acid lactone] | – | average fat excreted [2]: 5.6 (+/-3.8) g/day |
| CN1CCN(C2=Nc3cc(Cl)ccc3Nc3ccccc32)CC1 [clozapine] | largest weight gains | – |
| O=C1Cc2cc(CCN3CCN(c4nsc5ccccc45)CC3)c(Cl)cc2N1 [ziprasidone] | smallest | – |
| Ebelactone B | – | carragheenin-induced swelling [3]: reduces carragheenin-induced swelling |
| OCCOCCN1CCN(C2=Nc3ccccc3Sc3ccccc32)CC1 [quetiapine] | smallest | – |
| Cc1nc2n(c(=O)c1CCN1CCC(c3noc4cc(F)ccc34)CC1)CCCC2 [Risperidone] | modest weight changes that are not dose related | – |
